# Data from patent US20090325952A1, “PYRAZOLO[3,4-B]PYRIDINE COMPOUNDS, AND THEIR USE AS PDE4 INHIBITORS” (Glaxo Group Limited, priority 2006, published 2009).
# Structures can show the parent of a compound that is named as a salt.
# System: LPS-induced pulmonary neutrophilia in rats
# Assay: In Vivo Assay 1: LPS induced pulmonary neutrophilia in rats, intratracheal administration
# Set-up: species or system rat
# Details: after i.t. administration to the rat as a dry powder; preliminary tests
# Excerpt: This assay is an animal model of acute inflammation in the lung—specifically neutrophilia induced by lipopolysaccharide (LPS)—and allows the study of putative inhibition of such neutrophilia (anti-inflammatory effect) by an intratracheally (i.t.) administered PDE4 inhibitor (“drug”). The PDE4 inhibitors are suitably in dry powder, aqueous solution or aqueous suspension form. I.t. administration is one model of inhaled administration, allowing topical delivery to the lung.
# Animals: Male CD (Sprague Dawley Derived) rats supplied by Charles River, United Kingdom are housed in groups of 5 rats per cage, acclimatised after delivery for at least 7 days with bedding/nesting material regularly changed, fed on SDS diet R1 pelleted food given ad lib, and supplied with daily-changed pasteurised animal grade drinking water.
# Device for dry powder administration: For these studies, a Penn Century DP-4 dry powder intratracheal (i.t.) delivery device (insufflator) is used for administration of a dry powder blend of vehicle (inhalation grade lactose) and the PDE4 inhibitor compound or salt of the invention (“drug”). Each device is numbered and the sample loading chamber is unscrewed from the main device and weighed. The i.t. delivery needle is also weighed. The drug+lactose blend or inhalation grade lactose (vehicle control) is then added to the sample chamber and this is then re-weighed. The sample chamber is fitted back on to the main device to prevent any drug being lost. This procedure is repeated for all of the Penn century devices to be used in the study (one separate device for each animal). After dosing to the animals, the sample chambers and needles are re-weighed in order to determine the amount of sample that was expelled from the device.
# Device for aqueous solution administration: A blunt dosing needle, whose forward end is slightly angled to the needle axis, is used, with a flexible plastic portex canula inserted into the needle. The portex cannula is inserted into the lumen of the blunt stainless steel dosing needle and this is carefully inserted into the back of the animal's throat and into the trachea via the larynx. A known volume (200 microlitres) of the vehicle (0.2% Tween 80™ in saline) or of the solution (or suspension) drug composition is administered into the trachea using a plastic syringe that is attached to the portex cannula and dosing needle. A new internal cannula is used for each different drug group. After dosing, the needle is removed from the trachea and the animals are removed from the table and continually observed until they recover from the effects of anaesthesia. The animals are then returned to the holding cages and given free access to food and water, and are observed and any unusual behavioural changes noted. (Aqueous suspensions can be handled generally similarly.)
# Drugs and Materials: Lipopolysaccharide (LPS) (Serotype:0127:B8, e.g. from Sigma, UK; e.g. L3129 prepared by phenol extraction) is dissolved in phosphate-buffered saline (PBS).
# For dry powder, aqueous solution or aqueous suspension administration, PDE4 inhibitors are preferably used in size-reduced (e.g. micronised) form, for example according to the Micronisation Example(s) disclosed herein.
# For dry powder administration of the drug, the PDE4 inhibitor compound or salt of the invention (drug) is administered as a dry powder blended with inhalation-grade (respiratory-grade) lactose, i.e. as a dry powder composition. The target quantity of dry powder composition administered i.t. to each animal is 2 mg. This remains constant throughout the studies. To achieve different doses, blends of the drug dry powder and lactose, containing different concentrations of the PDE4 inhibitor compound or salt of the invention (drug), are prepared. […]
row,Structure (SMILES),duration of action in i.t. rat LPS-induced neutrophilia model [h]
1,"CCc1nc2c(cnn2CC)c(NC2CCOCC2)c1CNC(=O)c1ccc(NC(=O)CCCCCCCN(C)CCO)cc1 [N-{[1,6-diethyl-4-(tetrahydro-2H-pyran-4-ylamino)-1H-pyrazolo[3,4-b]pyridin-5-yl]methyl}-4-({8-[(2-hydroxyethyl)(methyl)amino]octanoyl}amino)benzamide]",4

# Same assay, conditions: after i.t. administration to the rat as an aqueous solution; preliminary tests
row,Structure (SMILES),duration of action in i.t. rat LPS-induced neutrophilia model [h]
1,"CCc1nc2c(cnn2CC)c(NC2CCOCC2)c1CNC(=O)c1ccc(NC(=O)CCCCCCCN(C)CCO)cc1 [N-{[1,6-diethyl-4-(tetrahydro-2H-pyran-4-ylamino)-1H-pyrazolo[3,4-b]pyridin-5-yl]methyl}-4-({8-[(2-hydroxyethyl)(methyl)amino]octanoyl}amino)benzamide]",≥ 2

# Biological target: T1, PDE4B (human recombinant) (Homo sapiens, UniProt Q07343)
# T1 construct: made in house; host or cells: Saccharomyces cerevisiae strain GL62 (PDE-deficient yeast)
# Assay: Inhibition of PDE4B activity (FP and/or SPA assay)
# Assay type: biochemical
# Details: generally FP assay; one reading or average of n readings; read-out: PDE4B pIC50 (generally in FP assay) (±about 0.5) (converted)
# Excerpt: Human recombinant PDE4B, in particular the 2B splice variant thereof (HSPDE4B2B), is disclosed in WO 94/20079 and also M. M. McLaughlin et al., “A low Km, rolipram-sensitive, cAMP-specific phosphodiesterase from human brain: cloning and expression of cDNA, biochemical characterisation of recombinant protein, and tissue distribution of mRNA”, J. Biol. Chem., 1993, 268, 6470-6476. For example, in Example 1 of WO 94/20079, human recombinant PDE4B is described as being expressed in the PDE-deficient yeast Saccharomyces cerevisiae strain GL62, e.g. after induction by addition of 150 uM CuSO4, and 100,000×g supernatant fractions of yeast cell lysates are described for use in the harvesting of PDE4B enzyme.
# The ability of compounds to inhibit catalytic activity at PDE4B or 4D (human recombinant), PDE3 (from bovine aorta), PDE5 (human recombinant) or PDE6 (from bovine retina) can optionally be determined by Scintillation Proximity Assay (SPA) in a 96-well format.
# Test compounds (as a solution in DMSO, suitably about 2 microlitre (ul) volume of DMSO solution) are preincubated at ambient temperature (room temperature, e.g. 19-23° C.) in Wallac Isoplates (code 1450-514) with PDE enzyme in 50 mM Tris-HCl buffer pH 7.5, 8.3 mM MgCl2, 1.7 mM EGTA, 0.05% (w/v) bovine serum albumin for 10-30 minutes (usually 30 minutes). The enzyme concentration is adjusted so that no more than 20% hydrolysis of the substrate defined below occurs in control wells without compound, during the incubation. For the PDE3, PDE4B and PDE4D assays, [5′,8-^3H]Adenosine 3′,5′-cyclic phosphate (Amersham Pharmacia Biotech, code TRK.559; or Amersham Biosciences UK Ltd, Pollards Wood, Chalfont St Giles, Buckinghamshire HP8 4SP, UK) is added to give 0.05uCi per well and about 10 nM final concentration. For the PDE5 and PDE6 assays, [8^−3H]Guanosine 3′,5′-cyclic phosphate (Amersham Pharmacia Biotech, code TRK.392) is added to give 0.05uCi per well and about 36 nM final concentration. Plates containing assay mixture, suitably approx. 100 ul volume of assay mixture, are mixed on an orbital shaker for 5 minutes and incubated at ambient temperature for 1 hour. Phosphodiesterase SPA beads (Amersham Pharmacia Biotech, code RPNQ 0150) are added (about 1 mg per well) to terminate the assay. Plates are sealed and shaken and allowed to stand at ambient temperature for 35 minutes to 1 hour (suitably 35 minutes) to allow the beads to settle. Bound radioactive product is measured using a WALLAC TRILUX 1450 Microbeta scintillation counter. For inhibition curves, 10 concentrations (e.g. 1.5 nM-30 uM) of each compound are assayed. Curves are analysed using ActivityBase and XLfit (ID Business Solutions Limited, 2 Ocean Court, Surrey Research Park, Guildford, Surrey GU2 7QB, United Kingdom) Results are expressed as pIC50 values.
# The ability of compounds to inhibit catalytic activity at PDE4B (human recombinant) or PDE4D (human recombinant) can optionally be determined by IMAP Fluorescence Polarisation (FP) assay (IMAP Explorer kit, available from Molecular Devices Corporation, Sunnydale, Calif., USA; Molecular Devices code: R8062) in 384-well format.
# The IMAP FP assay is able to measure PDE activity in an homogenous, non-radioactive assay format. The FP assay uses the ability of immobilised trivalent metal cations, coated onto nanoparticles (tiny beads), to bind the phosphate group of Fl-AMP that is produced on the hydrolysis of fluorescein-labelled (Fl) cyclic adenosine mono-phosphate (Fl-cAMP) to the non-cyclic Fl-AMP form. […] Binding of Fl-AMP product to the beads (coated with the immobilised trivalent cations) slows the rotation of the bound Fl-AMP and leads to an increase in the fluorescence polarisation ratio of parallel to perpendicular light. Inhibition of the PDE reduces/inhibits this signal increase. […]
# T1 sequence (Q07343 1-564 isoform Q07343-2): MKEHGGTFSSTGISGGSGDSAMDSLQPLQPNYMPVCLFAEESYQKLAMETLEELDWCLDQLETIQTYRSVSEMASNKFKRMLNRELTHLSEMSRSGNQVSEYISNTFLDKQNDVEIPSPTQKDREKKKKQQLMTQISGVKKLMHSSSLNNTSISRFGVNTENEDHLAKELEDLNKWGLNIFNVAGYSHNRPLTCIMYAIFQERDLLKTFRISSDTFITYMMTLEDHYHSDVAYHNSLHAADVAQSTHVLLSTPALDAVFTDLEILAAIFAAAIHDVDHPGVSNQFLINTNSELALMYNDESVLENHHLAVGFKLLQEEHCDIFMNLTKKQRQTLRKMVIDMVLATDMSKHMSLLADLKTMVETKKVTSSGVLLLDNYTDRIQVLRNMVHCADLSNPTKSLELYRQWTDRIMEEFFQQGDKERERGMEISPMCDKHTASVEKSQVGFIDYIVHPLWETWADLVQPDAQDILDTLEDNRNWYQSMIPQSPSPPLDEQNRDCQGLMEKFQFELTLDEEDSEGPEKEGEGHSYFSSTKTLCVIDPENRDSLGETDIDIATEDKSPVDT
row,Structure (SMILES),IC50 [nM]
1,"CCc1nc2c(cnn2CC)c(NC2CCOCC2)c1CNC(=O)c1ccc(NC(=O)CCCCCCCN(C)CCO)cc1 [Example 1C, N-{[1,6-diethyl-4-(tetrahydro-2H-pyran-4-ylamino)-1H-pyrazolo[3,4-b]pyridin-5-yl]methyl}-4-({8-[(2-hydroxyethyl)(methyl)amino]octanoyl}amino)benzamide]",~0.0501
2,"CCc1nc2c(cnn2CC)c(NC2CCOCC2)c1CNC(=O)c1ccc(NC(=O)CCCCCCCN2CCC[C@@H]2COC)cc1 [Example 11, N-{[1,6-diethyl-4-(tetrahydro-2H-pyran-4-ylamino)-1H-pyrazolo[3,4-b]pyridin-5-yl]methyl}-4-[(8-{(2R)-2-[(methyloxy)methyl]-1-pyrrolidinyl}octanoyl)amino]benzamide trifluoroacetate]",~0.0501
3,"CCc1nc2c(cnn2CC)c(NC2CCOCC2)c1CNC(=O)c1ccc(NC(=O)CCCCCCCN2CCC[C@H]2COC)cc1 [Example 12, N-{[1,6-diethyl-4-(tetrahydro-2H-pyran-4-ylamino)-1H-pyrazolo[3,4-b]pyridin-5-yl]methyl}-4-[(8-{(2S)-2-[(methyloxy)methyl]-1-pyrrolidinyl}octanoyl)amino]benzamide trifluoroacetate]",~0.0316
4,"CCc1nc2c(cnn2CC)c(NC2CCOCC2)c1CNC(=O)c1ccc(NC(=O)CCCCCCCN2CCOCC2)cc1 [Example 17, formate salt of N-{[1,6-diethyl-4-(tetrahydro-2H-pyran-4-ylamino)-1H-pyrazolo[3,4-b]pyridin-5-yl]methyl}-4-{[8-(4-morpholinyl)octanoyl]amino}benzamide]",~0.158
5,"CCc1nc2c(cnn2CC)c(NC2CCOCC2)c1CNC(=O)c1ccc(CCCCOCCCCN2CCOCC2)cc1 [Example 20, formate salt of N-{[1,6-diethyl-4-(tetrahydro-2H-pyran-4-ylamino)-1H-pyrazolo[3,4-b]pyridin-5-yl]methyl}-4-(4-{[4-(4-morpholinyl)butyl]oxy}butyl)benzamide]",~0.1
6,"CCc1nc2c(cnn2CC)c(NC2CCOCC2)c1CNC(=O)c1ccc(CCCCOCCCCN2CCCC2)cc1 [Example 21, formate salt of N-{[1,6-diethyl-4-(tetrahydro-2H-pyran-4-ylamino)-1H-pyrazolo[3,4-b]pyridin-5-yl]methyl}-4-(4-{[4-(1-pyrrolidinyl)butyl]oxy}butyl)benzamide]",~0.0631
7,"CCc1nc2c(cnn2CC)c(NC2CCOCC2)c1CNC(=O)c1ccc(NC(=O)CCCCCN(C)CCO)cc1 [Example 31, N-{[1,6-diethyl-4-(tetrahydro-2H-pyran-4-ylamino)-1H-pyrazolo[3,4-b]pyridin-5-yl]methyl}-4-({6-[(2-hydroxyethyl)(methyl)amino]hexanoyl}amino)benzamide]",~0.0794
8,"CCc1nc2c(cnn2CC)c(NC2CCOCC2)c1CNC(=O)c1ccc(NC(=O)CCCCCCCCCCN(C)CCO)cc1 [Example 34, N-{[1,6-diethyl-4-(tetrahydro-2H-pyran-4-ylamino)-1H-pyrazolo[3,4-b]pyridin-5-yl]methyl}-4-({11-[(2-hydroxyethyl)(methyl)amino]undecanoyl}amino)benzamide]",~1
